US7635702B2, “Imidazole compounds as transforming growth factor (TGF) inhibitors” (Pfizer Inc., priority 2002, dated 2009)

Biological target: T1, ALK-5 (TβRI) (Homo sapiens, UniProt P36897)
T1 construct: using either the kinase domain of ALK5 with Smad3 as substrate; GST
T1 sequence (P36897 205-495 limits assumed): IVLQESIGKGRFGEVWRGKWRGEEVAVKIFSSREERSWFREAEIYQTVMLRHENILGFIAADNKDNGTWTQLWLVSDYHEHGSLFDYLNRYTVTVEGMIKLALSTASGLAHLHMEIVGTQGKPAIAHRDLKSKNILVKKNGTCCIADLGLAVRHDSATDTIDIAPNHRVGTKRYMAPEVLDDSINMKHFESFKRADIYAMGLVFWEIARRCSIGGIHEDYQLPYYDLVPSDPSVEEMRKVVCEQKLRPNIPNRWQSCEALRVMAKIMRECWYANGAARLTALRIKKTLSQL
Test: ALK-5 (TβRI) kinase assay
Type: biochemical
Conditions: GST-ALK5 with GST-Smad3 substrate, 33P-ATP
Description: The kinase assays were performed with 65 nM GST-ALK5 and 84 nM GST-Smad3 in 50 mM HEPES, 5 mM MgCl2, 1 mM CaCl2, 1 mM dithiothreitol, and 3_M ATP. Reactions were incubated with 0.5_Ci of [33 P]_ATP for 3 h at 30° C. Phosphorylated protein was captured on P-81 paper (Whatman, Maidstone, England), washed with 0.5% phosphoric acid, and counted by liquid scintillation. Alternatively, Smad3 or Smad1 protein was also coated onto FlashPlate Sterile Basic Microplates (PerkinElmer Life Sciences, Boston, Mass.). Kinase assays were then performed in Flash-Plates with same assay conditions using either the kinase domain of ALK5 with Smad3 as substrate or the kinase domain of ALK6 (BMP receptor) with Smad1 as substrate. Plates were washed three times with phosphate buffer and counted by TopCount (Packard Bio-science, Meriden, Conn.). (Laping, N.J. et al. Molecular Pharmacology 62:58-64 (2002)).

In the case of `Cc1cccc(-c2[nH]cnc2-c2ccc3nnn(C)c3c2)n1` [Example 12, 1-Methyl-6-[5-(6-methyl-pyridin-2-yl)-1H-imidazol-4-yl]-1H-benzotriazole], the IC50 is reported as roughly 44.5 nM.
